{"source": "paper PMC8253220", "about": "“Molecular design, synthesis and in vitro biological evaluation of thienopyrimidine–hydroxamic acids as chimeric kinase HDAC inhibitors: a challenging approach to combat cancer” (Journal of Enzyme Inhibition and Medicinal Chemistry, 2021)", "assay_in_all_cases": "NCI one-dose screen", "format_in_all_cases": "cell-based, human", "key": {"[1]": {"system": "NCI-H23", "conditions": "NSCLC NCI-H23, 10 µM single dose", "outline": "(§1)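 Percent growth inhibition, referenced to untreated control cells, was determined after a single 10 μM compound exposure in the NCI 60-cell-line anticancer screen.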"}, "[2]": {"system": "HOP-92", "conditions": "NSCLC HOP-92, 10 µM single dose", "outline": "(§2)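 One concentration (10 μM) applied to each line of the full NCI-60 panel; percent growth compared against untreated cells.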"}, "[3]": {"system": "U251", "conditions": "CNS U251, 10 µM single dose", "outline": "(§3)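 In vitro antiproliferative testing: NCI-60 panel, initial single dose 10 μM, inhibition % derived from percent growth of treated versus untreated control cells.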"}, "[4]": {"system": "HCT-15", "conditions": "Colon HCT-15, 10 µM single dose", "outline": "as §2"}, "[5]": {"system": "OVCAR-8", "conditions": "Ovarian OVCAR-8, 10 µM single dose", "outline": "as §2"}, "[6]": {"system": "SK-MEL-28", "conditions": "Melanoma SK-MEL-28, 10 µM single dose", "outline": "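Compounds were tested at a single dose of 10 μM across the full NCI-60 cell line panel. Growth was expressed as percent growth relative to untreated control cells, reported as percent inhibition.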"}, "[7]": {"system": "MDA-MB-435", "conditions": "Melanoma MDA-MB-435, 10 µM single dose", "outline": "as §2"}, "[8]": {"system": "NCI-H322M", "conditions": "NSCLC NCI-H322M, 10 µM single dose", "outline": "as §2"}, "[9]": {"system": "TK-10", "conditions": "Renal TK-10, 10 µM single dose", "outline": "as §2"}, "[10]": {"system": "SF-539", "conditions": "CNS SF-539, 10 µM single dose", "outline": "as §1"}, "[11]": {"system": "NCI/ADR-RES", "conditions": "Ovarian NCI/ADR-RES, 10 µM single dose", "outline": "as §2"}, "[12]": {"system": "HT29", "conditions": "Colon HT29, 10 µM single dose", "outline": "as §2"}, "[13]": {"system": "SF-295", "conditions": "CNS SF-295, 10 µM single dose", "outline": "as §2"}, "[14]": {"system": "DU-145", "conditions": "Prostate DU-145, 10 µM single dose", "outline": "as §2"}, "[15]": {"system": "CAKI-1", "conditions": "Renal CAKI-1, 10 µM single dose", "outline": "as §2"}, "[16]": {"system": "RPMI-8226", "conditions": "Leukemia RPMI-8226, 10 µM single dose", "outline": "as §2"}, "[17]": {"system": "SK-MEL-2", "conditions": "Melanoma SK-MEL-2, 10 µM single dose", "outline": "as §3"}, "[18]": {"system": "CCRF-CEM", "conditions": "Leukemia CCRF-CEM, 10 µM single dose", "outline": "as §2"}, "[19]": {"system": "786-0", "conditions": "Renal 786-0, 10 µM single dose", "outline": "as §2"}, "[20]": {"system": "OVCAR-4", "conditions": "Ovarian OVCAR-4, 10 µM single dose", "outline": "as §2"}, "[21]": {"system": "HL-60(TB)", "conditions": "Leukemia HL-60(TB), 10 µM single dose", "outline": "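At 10 μM, a single concentration, compounds were evaluated for antiproliferative effect in the NCI 60-line screen, with growth expressed relative to untreated control cells.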"}, "[22]": {"system": "UO-31", "conditions": "Renal UO-31, 10 µM single dose", "outline": "as §3"}, "[23]": {"system": "BT-549", "conditions": "Breast BT-549, 10 µM single dose", "outline": "as §2"}, "[24]": {"system": "NCI-H522", "conditions": "NSCLC NCI-H522, 10 µM single dose", "outline": "as §3"}, "[25]": {"system": "SNB-75", "conditions": "CNS SNB-75, 10 µM single dose", "outline": "as §3"}, "[26]": {"system": "KM12", "conditions": "Colon KM12, 10 µM single dose", "outline": "as §1"}, "[27]": {"system": "HCT-116", "conditions": "Colon HCT-116, 10 µM single dose", "outline": "as §2"}, "[28]": {"system": "M14", "conditions": "Melanoma M14, 10 µM single dose", "outline": "as §2"}, "[29]": {"system": "MOLT-4", "conditions": "Leukemia MOLT-4, 10 µM single dose", "outline": "as §1"}, "[30]": {"system": "OVCAR-3", "conditions": "Ovarian OVCAR-3, 10 µM single dose", "outline": "as §2"}, "[31]": {"system": "SNB-19", "conditions": "CNS SNB-19, 10 µM single dose", "outline": "as §3"}, "[32]": {"system": "A549/ATCC", "conditions": "NSCLC A549/ATCC, 10 µM single dose", "outline": "as §2"}, "[33]": {"system": "HS 578T", "conditions": "Breast HS 578T, 10 µM single dose", "outline": "as §2"}, "[34]": {"system": "SR", "conditions": "Leukemia SR, 10 µM single dose", "outline": "as §2"}, "[35]": {"system": "SF-268", "conditions": "CNS SF-268, 10 µM single dose", "outline": "as §1"}, "[36]": {"system": "UACC-62", "conditions": "Melanoma UACC-62, 10 µM single dose", "outline": "as §2"}}, "note": "Several values for one entry are separate records, joined by “and”; a condition that tells them apart may be missing. Equal entries are not always repeated."}
{"smiles": "Cc1c(C(=O)NCCCC(=O)NO)sc2ncnc(Nc3ccc(NC(=O)Nc4ccccc4)cc3)c12", "note": "[Compound 12a, 1–(4-(6-((4-(hydroxyamino)-4-oxobutyl)carbamoyl)-5-methylthieno[2,3-d]pyrimidin-4-ylamino)phenyl)-3-phenylurea]", "values": [{"measurement": "Growth Percent", "setting": "[1]", "result": "89.2% and 89.25%"}, {"measurement": "Growth Percent", "setting": "[2]", "result": "121.7% and 121.76%"}, {"measurement": "Growth Percent", "setting": "[3]", "result": "92.3% and 92.32%"}, {"measurement": "Growth Percent", "setting": "[4]", "result": 100.2, "unit": "%"}, {"measurement": "Growth Percent", "setting": "[5]", "result": "104.6% and 104.68%"}, {"measurement": "Growth Percent", "setting": "[6]", "result": "109.4% and 109.43%"}, {"measurement": "Growth Percent", "setting": "[7]", "result": "101.8% and 101.82%"}, {"measurement": "Growth Percent", "setting": "[8]", "result": "99.7% and 99.76%"}, {"measurement": "Growth Percent", "setting": "[9]", "result": "111.3% and 111.37%"}, {"measurement": "Growth Percent", "setting": "[10]", "result": "96.5% and 96.54%"}, {"measurement": "Growth Percent", "setting": "[11]", "result": "103.7% and 103.79%"}, {"measurement": "Growth Percent", "setting": "[12]", "result": "104.7% and 104.74%"}, {"measurement": "Growth Percent", "setting": "[13]", "result": "102.0% and 102.06%"}, {"measurement": "Growth Percent", "setting": "[14]", "result": "108.5% and 108.51%"}, {"measurement": "Growth Percent", "setting": "[15]", "result": "92.8% and 92.88%"}, {"measurement": "Growth Percent", "setting": "[16]", "result": "110.5% and 110.53%"}, {"measurement": "Growth Percent", "setting": "[17]", "result": "113.3% and 113.39%"}, {"measurement": "Growth Percent", "setting": "[18]", "result": "107.0% and 107.09%"}, {"measurement": "Growth Percent", "setting": "[19]", "result": "102.3% and 102.37%"}, {"measurement": "Growth Percent", "setting": "[20]", "result": 100.6, "unit": "%"}, {"measurement": "Growth Percent", "setting": "[21]", "result": "101.4% and 101.44%"}, {"measurement": "Growth Percent", "setting": "[22]", "result": "75.3% and 75.33%"}, {"measurement": "Growth Percent", "setting": "[23]", "result": "105.0% and 105.06%"}, {"measurement": "Growth Percent", "setting": "[24]", "result": "87.7% and 87.71%"}, {"measurement": "Growth Percent", "setting": "[25]", "result": "78.1% and 78.17%"}, {"measurement": "Growth Percent", "setting": "[26]", "result": "99.6% and 99.61%"}, {"measurement": "Growth Percent", "setting": "[27]", "result": 99.5, "unit": "%"}, {"measurement": "Growth Percent", "setting": "[28]", "result": "99.0% and 99.09%"}, {"measurement": "Growth Percent", "setting": "[29]", "result": "102.6% and 102.68%"}, {"measurement": "Growth Percent", "setting": "[30]", "result": "107.1% and 107.19%"}, {"measurement": "Growth Percent", "setting": "[31]", "result": "97.1% and 97.12%"}, {"measurement": "Growth Percent", "setting": "[32]", "result": "99.6% and 99.69%"}, {"measurement": "Growth Percent", "setting": "[33]", "result": "106.3% and 106.34%"}, {"measurement": "Growth Percent", "setting": "[34]", "result": "105.3% and 105.35%"}, {"measurement": "Growth Percent", "setting": "[35]", "result": "92.5% and 92.51%"}, {"measurement": "Growth Percent", "setting": "[36]", "result": "99.1% and 99.19%"}]}
{"smiles": "Cc1c(C(=O)NCCC(=O)NO)sc2ncnc(Nc3ccc(Cl)cc3)c12", "note": "[Compound 19c, 4–(4-chlorophenylamino)-N-(3-(hydroxyamino)-3-oxopropyl)-5-methylthieno[2,3-d]pyrimidine-6-carboxamide]", "values": [{"measurement": "Growth Percent", "setting": "[1]", "result": 102.7, "unit": "%"}, {"measurement": "Growth Percent", "setting": "[2]", "result": "124.7% and 124.71%"}, {"measurement": "Growth Percent", "setting": "[3]", "result": "104.8% and 104.84%"}, {"measurement": "Growth Percent", "setting": "[4]", "result": "99.7% and 99.76%"}, {"measurement": "Growth Percent", "setting": "[5]", "result": "104.1% and 104.13%"}, {"measurement": "Growth Percent", "setting": "[6]", "result": 112.1, "unit": "%"}, {"measurement": "Growth Percent", "setting": "[7]", "result": "102.9% and 102.91%"}, {"measurement": "Growth Percent", "setting": "[8]", "result": "105.7% and 105.79%"}, {"measurement": "Growth Percent", "setting": "[9]", "result": "115.9% and 115.96%"}, {"measurement": "Growth Percent", "setting": "[10]", "result": 99.0, "unit": "%"}, {"measurement": "Growth Percent", "setting": "[11]", "result": "105.4% and 105.48%"}, {"measurement": "Growth Percent", "setting": "[12]", "result": "102.2% and 102.22%"}, {"measurement": "Growth Percent", "setting": "[13]", "result": "99.7% and 99.97%"}, {"measurement": "Growth Percent", "setting": "[14]", "result": 114.2, "unit": "%"}, {"measurement": "Growth Percent", "setting": "[15]", "result": "90.4% and 90.48%"}, {"measurement": "Growth Percent", "setting": "[16]", "result": "105.4% and 105.48%"}, {"measurement": "Growth Percent", "setting": "[17]", "result": "101.8% and 101.81%"}, {"measurement": "Growth Percent", "setting": "[18]", "result": "104.7% and 104.72%"}, {"measurement": "Growth Percent", "setting": "[19]", "result": "104.9% and 104.99%"}, {"measurement": "Growth Percent", "setting": "[20]", "result": "112.3% and 112.39%"}, {"measurement": "Growth Percent", "setting": "[21]", "result": "104.5% and 104.56%"}, {"measurement": "Growth Percent", "setting": "[22]", "result": "79.9% and 79.99%"}, {"measurement": "Growth Percent", "setting": "[23]", "result": "103.5% and 103.54%"}, {"measurement": "Growth Percent", "setting": "[24]", "result": "90.0% and 90.06%"}, {"measurement": "Growth Percent", "setting": "[25]", "result": "91.7% and 91.75%"}, {"measurement": "Growth Percent", "setting": "[26]", "result": "102.0% and 102.09%"}, {"measurement": "Growth Percent", "setting": "[27]", "result": "102.1% and 102.16%"}, {"measurement": "Growth Percent", "setting": "[28]", "result": "107.9% and 107.96%"}, {"measurement": "Growth Percent", "setting": "[29]", "result": "108.6% and 108.67%"}, {"measurement": "Growth Percent", "setting": "[30]", "result": "110.3% and 110.31%"}, {"measurement": "Growth Percent", "setting": "[31]", "result": "103.7% and 103.73%"}, {"measurement": "Growth Percent", "setting": "[32]", "result": "107.5% and 107.54%"}, {"measurement": "Growth Percent", "setting": "[33]", "result": "105.8% and 105.84%"}, {"measurement": "Growth Percent", "setting": "[34]", "result": "101.3% and 101.35%"}, {"measurement": "Growth Percent", "setting": "[35]", "result": "97.6% and 97.68%"}, {"measurement": "Growth Percent", "setting": "[36]", "result": "101.7% and 101.73%"}]}
